For 82 molecules, RP-LC retention time results are on record in the METLIN SMRT retention time set (Domingo-Almenara et al. 2019).

The data set in a line: gradient 5% acetonitrile 3 min, to 50% in 2 min, to 85% in 15 min, held 3 min, 100 µL/min. The following applies: column: Zorbax Extend-C18 2.1 x 50 mm; eluents: water / acetonitrile, 0.1% formic acid. In short, it runs like this:
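Each retention time is based on an adduct peak selected computationally and verified by manual inspection. Measurements used HPLC–quadrupole time-of-flight mass spectrometry in positive and negative ionization mode on mixtures of ~100 pure standards. Chromatography ran on a Zorbax Extend-C18 column (2.1 × 50 mm, 1.8 μm) at 100 μL/min with water and acetonitrile, each containing 0.1% formic acid, and dead and dwell volumes of 40 μL and 900 μL.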
For `Cc1ccc(CCNC(=O)Cc2csc3nc(-c4ccc(C)c(C)c4)cn23)cc1`, the RP-LC retention time came out at 884 s.

Molecule `CCCNC(=O)C1CCN(c2ccc(SCC(=O)Nc3ccc(C)cc3)nn2)CC1` showed an RP-LC retention time of 645 s. Take `Cc1cccc(S(=O)(=O)N(C)CC2CCOC2)c1` (configuration not stated): the RP-LC retention time stood at 811 s. `CN(C)c1ccc(CNC(=O)CCCn2c(=O)c3cccn3c3ccc(F)cc32)cc1`: the RP-LC retention time came out at 658 s. The figure for `O=C1COc2ccccc2N1Cc1nc(-c2cccc(Br)c2)no1` is 1120 s; for `COc1ccc(-c2noc(-c3ccc(NCCN(C)C)nn3)n2)cc1` it is 630 s. In turn, `O=C(c1cc(C2CC2)[nH]n1)N1CCN(c2ccc(N3CCOCC3)nn2)CC1` displayed an RP-LC retention time of 577 s. The same measure for `O=C(CCN(CC1CCCO1)C(=O)c1cccc(Br)c1)N1CCNCC1` (configuration not stated): 610 s. On to `COC(=O)c1c(NCCc2ccccc2)c2cc(F)ccc2[nH]c1=O`, for which the RP-LC retention time amounted to 791 s.

`Cc1ccc(CNC(=O)C2(C)CCCCC(=O)N2)cc1` (configuration not stated): the RP-LC retention time amounted to 685 s. In turn, `COc1ccc(C(=O)N2CCC3(CC2)N=C(c2ccc(Cl)cc2)NO3)cc1` yielded an RP-LC retention time of 851 s. `Cc1nc(N2CCOCC2)c2c(C(=O)Nc3ccc(F)cc3Cl)c(C)oc2n1` yielded an RP-LC retention time of 896 s. Turning to `CCOc1ccc(C(=O)N2CCC3(CC2)NC(=O)c2ccc(Cl)cc2N3)cc1`, the RP-LC retention time turned out to be 768 s.

`CCc1cc(C(=O)Nc2ccc(C)cc2C)nc2ccnn12` gave an RP-LC retention time of 1090 s. For `Nc1nc(N2CCCC2)ncc1C(=O)NCc1ccccc1F`, the RP-LC retention time was found to be 643 s.

`COc1ccc(C(=O)Nc2ccc3nc(N4CCN(CCC#N)CC4)cc(C(=O)O)c3c2)cc1` displayed an RP-LC retention time of 599 s. `COc1ccc(NC(=O)Cn2nc(N3CCOCC3)c3ccccc3c2=O)cc1Cl` returned an RP-LC retention time of 794 s. The figure for `O=C1c2c(O)cc(O)cc2OC(c2ccc(O)c(O)c2)C1O` (configuration not stated) is 687 s.

For the molecule `NC(=O)c1ccc2c(c1)CCCN2S(=O)(=O)c1ccccc1`, the RP-LC retention time turned out to be 726 s.

Molecule `CN(C)c1nn(CC(=O)Nc2ccc(F)cc2Cl)c(=O)c2ccccc12` returned an RP-LC retention time of 913 s. In turn, `COc1ccc(-c2ncccc2CNS(=O)(=O)c2cccc(C#N)c2)cc1` registered an RP-LC retention time of 660 s.

`COc1ccc2c(c1)C1(CCN(C(=O)COc3ccccc3)C1)C(=O)N2C` (configuration not stated) had an RP-LC retention time of 791 s. Molecule `COc1ccccc1-c1nc(-c2ccc(S(=O)(=O)N3CCC(C(=O)N4CCCC4)CC3)cc2)no1` showed an RP-LC retention time of 952 s.

Consider `Cc1ccccc1Cn1cc(C(=O)O)c(S(=O)(=O)N2CCSCC2)n1`, for which the RP-LC retention time came to 848 s. Take `O=C(c1cc(S(=O)(=O)N2CCCC(C(=O)N3CCCC3)C2)c[nH]1)N1CCCCCC1` (configuration not stated): the RP-LC retention time turned out to be 733 s.

In the case of `CSc1ccccc1NC(=O)C(C)Cn1nc(-c2ccco2)ccc1=O` (configuration not stated), the RP-LC retention time worked out at 707 s. `CCS(=O)(=O)c1ccc2c(c1)N(Cc1nc(-c3ccc4c(c3)OCO4)no1)C(=O)CO2` gave an RP-LC retention time of 859 s. `COc1cccc2cc(C(=O)Nc3nc(-c4ccccc4)cs3)c(=O)oc12` displayed an RP-LC retention time of 1180 s. With `Fc1cc(F)c2nc(NCCCn3ccnc3)sc2c1`, the RP-LC retention time was determined as 548 s.

As for `Cc1cc(C)n2nc(SCC(=O)NCCC(C)C)nc2n1`, the RP-LC retention time is 690 s.

As to `O=C(Cc1cccc(F)c1)N1CCCC1c1nc(-c2ccccc2Cl)no1` (configuration not stated), the RP-LC retention time was found to be 1200 s. In the case of `Cc1noc(COC2CCN(C(=O)c3ccccc3F)CC2)n1`, the RP-LC retention time was found to be 818 s. The molecule `CC1(C(=O)NCCc2c[nH]c3ccccc23)CCCCC(=O)N1` (configuration not stated) displayed an RP-LC retention time of 656 s. `CCCCNC(=O)c1ccc2c(c1)N(C)C(=O)C1CCCCN21` (configuration not stated) gave an RP-LC retention time of 813 s. Molecule `Cc1ccccc1-c1nc(CN2CCN(C(=O)NC3CCCC3)CC2)c(C)o1` registered an RP-LC retention time of 672 s. The same measure for `O=C(c1ccc(F)cc1)N1CCC(n2nc(-c3ccsc3)ccc2=O)CC1`: 816 s; for `Cc1nn(-c2ccc(F)cc2)c2nc(N3CCCC(C(=O)NCCc4ccco4)C3)sc12` (configuration not stated): 1080 s.

`Cn1c(=O)c2cc(C(=O)N3CCN(c4ccc(F)cc4)CC3)sc2n(C)c1=O` displayed an RP-LC retention time of 796 s.

Take `COc1ccc(-n2c(=O)c3sccc3n(Cc3nc(-c4ccccc4C)no3)c2=O)cc1`: the RP-LC retention time stood at 1000 s. Molecule `COc1cc(C(C)=O)ccc1OC(=O)c1cc2c(C)nn(-c3ccccc3)c2s1` had an RP-LC retention time of 1190 s. Molecule `CCOC(=O)c1sc(NC(=O)Cc2ccc3c(c2)OCO3)cc1C` had an RP-LC retention time of 856 s.

In turn, `NS(=O)(=O)c1ccc(NC(=O)C2Cc3ccccc3C(=O)O2)cc1` (configuration not stated) came in with an RP-LC retention time of 684 s. The same measure for `CCN(CC)S(=O)(=O)c1ccc2c(c1)CC(C(=O)NCCN1CCCCC1)N2C(C)=O` (configuration not stated): 610 s; for `COc1ccc2c(c1O)-c1cccc3c1[C@@H](C2)N(C)CC3`: 643 s; for `CCOC(=O)c1cccc(NC(=O)CCc2c(-c3ccccc3)nc3ccccn23)c1`: 984 s. Molecule `COc1cc(OC)c(NC(=O)Cn2cc3c(n2)CCC(C)C3)cc1Cl` (configuration not stated) returned an RP-LC retention time of 999 s.

As to `Cc1nn(CCCC(=O)NCc2ccco2)c(=O)c2nn(-c3ccccc3)c(C)c12`, the RP-LC retention time was 736 s. Consider `CCCN(C(C)=O)c1nc(-c2ccc(C3CCCCC3)cc2)cs1`, for which the RP-LC retention time was determined as 748 s. The same measure for `Cn1nccc1-c1cccc(-c2noc(-c3cnccn3)n2)c1`: 786 s; for `CCCc1noc(-c2ccc3nnc(CC(=O)N4CCSCC4)n3c2)n1`: 755 s; for `Cc1cc(C2CCCN2C(=O)Nc2ccc(C)c(Cl)c2)no1` (configuration not stated): 906 s. Consider `COc1ccc(-c2nnc(-c3cccc(S(=O)(=O)N4CCOCC4)c3)o2)cc1OC`, for which the RP-LC retention time was 813 s. The figure for `CCCn1cc(C(=O)N2CCOCC2)c2cccnc21` is 640 s; for `CCN(CC)CCNS(=O)(=O)c1cc(-c2nc(C)c(C)s2)sc1C` it is 656 s; for `COc1ccc(-c2noc(Cc3nnc(-c4ccc(Cl)cc4)o3)n2)cc1` it is 1060 s. The molecule `CCc1nnc([C@@H]2CC(F)(F)CN2C(=O)CCn2nc(C)cc2C)o1` yielded an RP-LC retention time of 666 s. The molecule `O=S(=O)(c1cccnc1)N1CCN(c2ccc(-c3cccs3)nn2)CC1` showed an RP-LC retention time of 692 s. Take `O=C1NCCCCCCN(C(=O)Nc2ccc(F)cc2)[C@H]2CCC[C@@H]12`: the RP-LC retention time is 780 s.

Turning to `CCc1ccc(-c2csc(Nc3ccc(Br)cn3)n2)cc1`, the RP-LC retention time is 1330 s. For the molecule `Cc1cc(C)cc(NC(=O)Nc2ccc3nc(N4CCN(C)CC4)cc(C)c3c2)c1`, the RP-LC retention time came out at 620 s.

With `CCC(CC)C(=O)N1CCc2c(c(-c3nnc(-c4ccccc4Cl)o3)nn2C)C1`, the RP-LC retention time was found to be 899 s. The figure for `Cc1ccccc1-c1nc(C2CC(=O)N(c3ccc(Cl)cc3)C2)no1` (configuration not stated) is 1090 s; for `O=C(NC1CCN(Cc2ccccc2)CC1)c1c(OCC2CC2)cc(=O)n2c1CCCCC2` it is 596 s. `CCOC(=O)c1c(C)c(CCC(=O)NC2CCCCC2)n(C)c1C` gave an RP-LC retention time of 892 s. The figure for `CC(N)C(=O)OC(C)(C)Cc1ccc(Cl)cc1` (configuration not stated) is 757 s; for `O=C(Cc1c[nH]c2ccccc12)N1CCc2cc(-c3ccno3)ccc21` it is 825 s; for `Cc1sc2ncnc(N3CCCC(C)C3)c2c1C(=O)Nc1cccc(F)c1C` (configuration not stated) it is 1300 s. `Cc1cc(=O)n(CC(=O)Nc2ccccc2)c(N2CCOCC2)n1` displayed an RP-LC retention time of 628 s. With `O=c1c2sccc2n(Cc2nc(-c3cccc(Br)c3)no2)c(=O)n1Cc1ccccc1`, the RP-LC retention time was 1110 s. The same measure for `CN1CCN(C(CNS(=O)(=O)c2ccccc2F)c2ccsc2)CC1` (configuration not stated): 570 s; for `CCOc1ccc(CNC2CCN(c3ccc(C(=O)NC4CC4)cn3)C2)cc1` (configuration not stated): 578 s; for `Cc1cc(N2CCOCC2)nc(N2CCN(C(=O)c3ccc(Br)cc3)CC2)n1`: 660 s. `CCc1ccccc1NC(=O)NCC1CCOCC1` displayed an RP-LC retention time of 705 s. With `CCOc1cc(=O)n2c(c1C(=O)N1CCC3(CC1)OCCO3)CCCCC2`, the RP-LC retention time came out at 639 s.

Take `C[C@@H](NC(=O)c1cccc(Br)c1)C(=O)NCc1cscn1`: the RP-LC retention time was determined as 665 s. As to `CCn1c(C(=O)NCCCN2CCCC(C)C2)cc2c(-c3cccs3)nn(-c3ccccc3)c21` (configuration not stated), the RP-LC retention time is 802 s. For `CCCN1CCN(C(=O)CC2Sc3ncccc3N(C)C2=O)CC1` (configuration not stated), the RP-LC retention time came to 576 s. On to `COc1ccc(CNC(=O)c2ccc3ncnc(N4CCCC4)c3c2)cc1`, for which the RP-LC retention time was 624 s.

Consider `O=C(C1CCN(c2nccnc2Sc2ccccc2)CC1)N1CCOCC1`, for which the RP-LC retention time turned out to be 798 s. Take `CC(=O)N1CCC2(CC1)CC(CC(=O)N(C)C)CCO2` (configuration not stated): the RP-LC retention time was 587 s. `COC(=O)c1cnc2nc(C)ccc2c1Nc1ccc(C)c(F)c1`: the RP-LC retention time stood at 696 s. `COc1ccc(-n2ccn3c(CCC(=O)NCCc4c[nH]c5ccccc45)nnc3c2=O)cc1` had an RP-LC retention time of 704 s.
